# What was measured:
# [1] = test system: i3 neurons differentiated from induced pluripotent stem cells (iPSCs); assay: iPSC differentiation to i3 neurons, morphology; format: cell-based; parameters: neurite outgrowth: dose or concentration left out as unconfirmed; conditions: ligand treatment before and during differentiation
# Procedure: iPSC Differentiation to Neurons. For growing neurons from iPSC cells, the method described by Femandopulle were employed (Femandopulle et al., 2018). Briefly, cells were treated with doxycycline to turn on expression of Neurogenin-2 (NGN2), which irreversibly sets these cells on the path of neuronal differentiation. The cells were treated with doxycycline for 3 days (changing media every day), and then re-plate the cells onto new plates coated with PLO. For each time point, 21 samples were prepared (DMSO and ligands 34 and 80 at different concentrations, in triplicate).
# An overview of the experiment timeline is shown as well: • Day 0: Plate iPSC on matrigel-coated 12-well plates • Day 2: Treat cells −/+ ligands in iPSC media • Day 3: Refeed cells induction media +Doxycycline −/+ ligands to start neuronal differentiation (Day 0 of differentiation) • Day 4: Refeed cells induction media +Doxycycline −/+ ligands (Day 1 of differentiation) • Day 5: Refeed cells induction media +Doxycycline −/+ ligands (Day 2 of differentiation) • Day 6: Take pictures; Refeed cells neuronal media −/+ ligands (Day 3 of differentiation) • Day 7: Collect cells for RNA/qPCR (Day 4 of differentiation)
# [2] = target: T1, LRH-1 (NR5A2) LBD (Homo sapiens, UniProt O00482); assay: DSF specificity assay, LRH-1; format: binding
# T1 construct: human LRH-1 (NR5A2) LBD (residues 291-541); hexahistidine tag with 3C protease site; made in house; host or cells: E. coli BL(21) DE3
# Procedure: (§1) Protein Expression and Purification. Human GCNF (NR6A1) LBD (residues 248-480) and mutants F284A/F361A, human LRH-1 (NR5A2) LBD (residues 291-541), human RXRα LBD (residues 223-462), human COUP-TF I LBD (residues 184-410) and human SF-1 LBD (residues 219-461) were subcloned in pET45b(+) plasmid (Novagen) were expressed in E. coli BL(21) DE3 cells in terrific broth with 0.1 mg/mL ampicillin as 3C protease-cleavable hexahistidine-tagged fusion proteins. The bacterial culture was grown at 37° C. to an optical density of 0.8 to 1.0 at 600 nm. Protein expression was induced by adding 1 mM IPTG and was allowed to proceed for 14 h at 22° C. […]
# (§2) DSF Assay. […] A total of 450 compounds (Life Chemicals) previously selected from a nuclear-receptor-biased library targeting REV-ERB were analyzed. Thermal stability was assessed on a Quantstudio 6 instrument (Biosystems) by ramping the temperature from 25° C. to 95° C. at 0.05° C./s and protein melt shifts were subsequently quantified by Boltzmann-derived melting temperature (Tm) using the Protein Thermal Shift (ThermoFisher) software. […]
# [3] = target: T2, GCNF LBD F284A (Homo sapiens, UniProt Q15406, F284A); assay: DSF of GCNF LBD mutant F284A; format: binding; conditions: 20 μM ligand
# T2 construct: Human GCNF (NR6A1) LBD (residues 248-480) and mutants F284A/F361A; hexahistidine tag with 3C protease site; made in house; host or cells: E. coli BL(21) DE3
# T2 sequence (Q15406 248-480 F284A): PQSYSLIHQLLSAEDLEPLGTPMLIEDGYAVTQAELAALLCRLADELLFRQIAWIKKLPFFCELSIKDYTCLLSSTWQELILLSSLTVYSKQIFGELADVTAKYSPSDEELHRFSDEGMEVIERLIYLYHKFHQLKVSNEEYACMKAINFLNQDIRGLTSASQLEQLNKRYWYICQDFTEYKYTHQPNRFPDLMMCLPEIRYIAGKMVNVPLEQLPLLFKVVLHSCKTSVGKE
# Procedure: as §1, §2
# T1 sequence (O00482 291-541): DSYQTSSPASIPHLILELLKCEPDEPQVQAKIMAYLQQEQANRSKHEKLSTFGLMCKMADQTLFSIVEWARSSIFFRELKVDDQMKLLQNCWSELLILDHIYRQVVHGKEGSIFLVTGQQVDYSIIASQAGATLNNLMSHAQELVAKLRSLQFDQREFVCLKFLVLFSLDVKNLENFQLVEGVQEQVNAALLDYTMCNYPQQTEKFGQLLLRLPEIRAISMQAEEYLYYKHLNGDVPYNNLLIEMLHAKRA
change of Tm of LRH-1 LBD [2],effect of mutation F284A on ΔTm compared to WT [3],SMILES,area of cell bodies [1],neurite branching [1],neurite outgrowth [1]
did not significantly change,substantially decreased the ΔTm,"Cc1ccc(-n2ncc3c(N4CCOCC4)nc(NCc4ccco4)nc32)cc1 [Ligand 34, N-[(furan-2-yl)methyl]-1-(4-methylphenyl)-4-(morpholin-4-yl)-1H-pyrazolo[3,4-d]pyrimidin-6-amine]",remain unchanged,more extensive branching,significant increase of neurite outgrowth
did not significantly change,no substantial effect,"O=C(Cn1cc(S(=O)(=O)c2ccccc2)c2ccccc21)N1CCc2ccccc21 [Ligand 80, 2-[3-(benzenesulfonyl)-1H-indol-1-yl]-1-(2,3-dihydro-1H-indol-1-yl)ethan-1-one]",remain unchanged,more extensive branching,significant increase of neurite outgrowth
